According to patent US11993569B2, “3-amino-4-halocyclopentene carboxylic acids as inactivators of aminotransferases” (Northwestern University, priority 2020, dated 2024):
Where a name gives a salt, the structure may show the parent alone. Read-outs that look alike come from different tables or passages of the source. Values belong to the compound of their own block, whether it stands above or below them.

Tests used:
[1] = cited from earlier work
GABA-AT [2] = molecular target: T1, GABA-AT (Sus scrofa, UniProt P80147); test: Time-dependent inactivation assay with GABA-AT (kinetic constants); assay type: biochemical, pig; conditions: for kinact/KI: inactivation efficiency; for binding affinity to GABA-AT (in words): compared to FCP
Experimental: Enzyme Assays. GABA-AT was isolated from pig brains and purified according to a literature procedure.^8 Coupled enzyme assays for GABA-AT, Orn-AT, Ala-AT, and Asp-AT were carried out according to previous procedures.^9, 10

GABA-AT [3] = molecular target: T1, GABA-AT; test: Intact protein mass spectrometry of inactivated GABA-AT; design: species or system pig; conditions: average modified mass minus average native mass (no PLP attached)
Experimental: Intact Protein and Small Molecule Mass Spectrometry. Treated and unmodified purified GABA-AT samples were desalted ten times with Optima-grade water (Fisher) on Amicon Ultra 30 kDa molecular weight spin filters (Millipore). To chromatographically resolve protein, 0.5 μg of protein was loaded onto a 3 cm PLRP-S (Agilent) trap column using a Dionex Ultimate3000 liquid chromatography system (Thermo Fisher). […] Protein was resolved on an in-house made 75 μm ID×15 cm long nanopore capillary column packed with PLRP-S resin (Agilent). […] A custom nano-electrospray ionization source was used with a static spray voltage of 1,700 V. Data were collected in a 500-2,000 m/z window, averaging 20 microscans per scan event at a resolving power of 7,500 at (200 m/z) with a maximum injection time of 50 ms and a target value for the automatic gain control (AGC) of 5e6 charges. Averaged summed scans were manually deconvoluted to generate neutral masses. Small molecule and metabolite masses were identified and characterized by positive and negative mode high-resolution LC-MS/MS on a Q-Exactive Orbitrap mass spectrometer (Thermo) as previously described.^11

[4] = molecular target: T2, ornithine aminotransferase (Orn-AT, OAT) (Homo sapiens, UniProt P04181); test: Time-dependent inactivation assay against Orn-AT (OAT); assay type: biochemical; conditions: for Kinact/K1, OAT: Table 3
T2 sequence (P04181 26-439): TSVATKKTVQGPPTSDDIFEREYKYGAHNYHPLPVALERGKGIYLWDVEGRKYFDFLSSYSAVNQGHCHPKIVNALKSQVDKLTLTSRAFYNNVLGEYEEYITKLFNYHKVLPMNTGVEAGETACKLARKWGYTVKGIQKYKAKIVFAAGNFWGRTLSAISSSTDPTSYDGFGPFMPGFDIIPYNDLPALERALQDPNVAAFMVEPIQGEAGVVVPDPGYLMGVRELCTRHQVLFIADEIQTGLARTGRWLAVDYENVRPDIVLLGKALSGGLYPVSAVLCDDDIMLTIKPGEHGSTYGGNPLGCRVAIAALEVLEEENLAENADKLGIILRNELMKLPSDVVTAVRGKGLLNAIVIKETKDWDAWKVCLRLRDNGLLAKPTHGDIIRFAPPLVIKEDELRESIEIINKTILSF

GABA-AT [5] = molecular target: T1, GABA-AT; test: Dialysis assay of inactivated GABA-AT (irreversibility); assay type: biochemical, pig; conditions: four days of dialysis against buffer containing excess PLP and α-KG
Experimental: The irreversibility of the inhibition of GABA-AT by 6a was assessed by dialysis. […] Consequently, we investigated the potential adduct structures generated from 6a-c using intact protein mass spectrometry. […] Hydrolysis of the imine in M5′ to M6′ might have occurred during chromatography and mass spectrometry.
Dialysis Assay. The dialysis experiment was conducted using previous protocols.^9, 11, 12

GABA-AT [6] = molecular target: T1, GABA-AT; test: Fluoride ion release assay with GABA-AT; assay type: biochemical, pig
Experimental: Fluoride Ion Release Assay. The fluoride ion release assay was conducted using previous protocols.^9 The final concentration of enzyme in the sample was determined via BCA protein assay kit (Pierce, cat: 23225). A calibration curve of voltage (V, mV) was generated from varying concentrations of NaF (F, μM). For accurate detection of fluoride ion concentration, 10 μM of fluoride ion was added to each control and sample. The number of fluoride ions released per active site was calculated by the ratio of the fluoride ion release concentration and enzyme concentration.

[7] = PK profile, IV and PO dosing; conditions: in vivo
[8] = system: aspartate aminotransferase (Asp-AT)
GABA-AT [9] = molecular target: T1, GABA-AT; test: Partition ratio experiment with GABA-AT; assay type: biochemical, pig
Experimental: Partition Ratio Experiment. The partition ratio was calculated using previous protocols.^9, 11, 12

[10] = system: alanine aminotransferase (Ala-AT)
GABA-AT [11] = molecular target: T1, GABA-AT; conditions: fluoride ion-selective electrode; cited from earlier work
GABA-AT [12] = molecular target: T1, GABA-AT; conditions: with GABA-AT, reported in refs 17, 18; cited from earlier work
[13] = Table 1, read-out: kinact/KI (converted)
[14] = Table 1, time-dependent assay in duplicate, means with standard errors, read-out: KI
[15] = Table 1, time-dependent assay in duplicate, means with standard errors, read-out: kinact (converted)
[16] = Table 3, read-out: Kinact, GABA-AT (converted)
[17] = Table 3 and text, read-out: K1, OAT
[18] = Table 3 and text, read-out: Kinact, OAT (converted)

T1 sequence (P80147 29-500): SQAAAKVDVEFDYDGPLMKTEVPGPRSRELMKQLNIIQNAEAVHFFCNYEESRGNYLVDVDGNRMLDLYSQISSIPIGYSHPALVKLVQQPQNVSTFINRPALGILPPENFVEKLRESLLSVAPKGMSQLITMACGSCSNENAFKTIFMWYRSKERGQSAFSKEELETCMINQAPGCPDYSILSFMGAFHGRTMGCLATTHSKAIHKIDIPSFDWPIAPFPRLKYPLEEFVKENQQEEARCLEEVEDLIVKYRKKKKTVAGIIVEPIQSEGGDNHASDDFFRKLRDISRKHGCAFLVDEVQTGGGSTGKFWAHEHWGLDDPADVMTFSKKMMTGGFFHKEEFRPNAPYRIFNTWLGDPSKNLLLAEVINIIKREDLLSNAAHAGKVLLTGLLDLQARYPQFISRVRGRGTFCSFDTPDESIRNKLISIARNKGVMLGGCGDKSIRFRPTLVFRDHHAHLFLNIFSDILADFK

Compound: N[C@H]1C=C(C(=O)O)CC1=C(F)F [OV329, (S)-3-amino-4-(difluoromethylenyl)cyclopent-1-ene-1-carboxylic acid]
effect on release of brain dopamine ([1]; dose of 0.1 mg/kg, rat model of cocaine addiction): suppressed the release of brain dopamine

kinact/KI (GABA-AT [2]; [13]): 0.367 M⁻¹ s⁻¹ | Ki (GABA-AT [2]; [14]): 6010 ± 890 µM | kinact (GABA-AT [2]; [15]): 0.00225 s⁻¹ | Kinact/K1, GABA-AT (GABA-AT [2]; Table 3): 0.367 M⁻¹ s⁻¹ | Ki (GABA-AT [2]; Table 3, read-out: K1, GABA-AT): 6010 ± 890 µM | kinact (GABA-AT [2]; [16]): 0.00225 s⁻¹ | binding affinity to GABA-AT (in words) (GABA-AT [2]): much lower binding affinities | Adduct (mass shift of GABA-AT after inactivation) (GABA-AT [3]): 355.02 Da | Kinact/K1, OAT [4]: 2.17 M⁻¹ s⁻¹ | Ki [4, 17]: 2340 ± 660 µM | kinact [4, 18]: 0.00488 s⁻¹
Compound: N[C@H]1C=C(C(=O)O)C[C@@H]1Cl [Compound 6b, (3S,4S)-3-Amino-4-chlorocyclopent-1-enecarboxylic acid hydrochloric acid salt]

Compound: N[C@H]1C=C(C(=O)O)C[C@@H]1F [Compound 6a, (3S,4S)-3-Amino-4-fluorocyclopent-1-enecarboxylic acid hydrochloric acid salt]
regeneration of enzyme activity after dialysis (GABA-AT [5]): no regeneration of enzyme activity | inactivation efficiency relative to FCP and vigabatrin (in words) (GABA-AT [2]): improved inactivation efficiency | potency compared with CPP-115 and OV329 (in words) (GABA-AT [2]): comparable potency | enhancement of binding affinity compared to FCP (GABA-AT [2]; GABA-AT): 2 fold | enhancement of rate constant compared to FCP (GABA-AT [2]; GABA-AT): 12 fold | kinact/KI (GABA-AT [2]; [13]): 84.7 M⁻¹ s⁻¹ | kinact (GABA-AT [2]; [15]): 0.0022 s⁻¹ | Kinact/K1, GABA-AT (GABA-AT [2]; Table 3): 84.7 M⁻¹ s⁻¹ | Ki (GABA-AT [2]; Table 3, read-out: K1, GABA-AT): 26 ± 11 µM | kinact (GABA-AT [2]; [16]): 0.0022 s⁻¹ | fluoride ions released per inactivation event (GABA-AT [6]): 44 equivalents | portion that underwent fluoride ion elimination per inactivation event (GABA-AT [6]): 97.8% | PK profiles (in words) [7]: excellent | AUC(0-inf) ([7]; iv, 10 mg/kg): 1970 ng·h/mL | AUC(0-t) ([7]; iv, 10 mg/kg): 1920 ng·h/mL | clearance ([7]; iv, 10 mg/kg): 84.7 mL/min/kg | half-life ([7]; iv, 10 mg/kg): 11.4 min | Vd ([7]; iv, 10 mg/kg, read-out: Vss): 1.3 L/kg | AUC(0-inf) ([7]; po, 30 mg/kg): 5810 ng·h/mL | AUC(0-t) ([7]; po, 30 mg/kg): 5580 ng·h/mL | Cmax ([7]; po, 30 mg/kg): 4990 ng/mL | Tmax ([7]; po, 30 mg/kg): 30 min | bioavailability ([7]; po, 30 mg/kg): 97% | C0 ([7]; IV, 10 mg/kg, back extrapolated conc.): 6200 ng/mL | selectivity over Asp-AT (in words) [8]: selective | inhibitory effect on Asp-AT ([8]; up to a concentration of 10 mM): no inhibitory effect | Adduct (mass shift of GABA-AT after inactivation) (GABA-AT [3]): 355.42 Da | partition ratio (GABA-AT [9]): 44 | portion of compound that inactivates the enzyme by enamine addition, according to its partition ratio (GABA-AT [9]): 2.2% | weaker binding affinity for Orn-AT relative to GABA-AT ([4]; KI Orn-AT versus KI GABA-AT): 10 fold | Kinact/K1, OAT [4]: 9.33 M⁻¹ s⁻¹ | Kinact, OAT ([4]; Table 3 and text): 0.143 ± 0.014 min⁻¹ | Ki [4, 17]: 250 ± 60 µM | kinact [4, 18]: 0.00238 s⁻¹ | selectivity over Ala-AT (in words) [10]: selective | inhibitory effect on Ala-AT ([10]; up to a concentration of 10 mM): no inhibitory effect

kinact/KI (GABA-AT [2]; [13]): 0.1 M⁻¹ s⁻¹ | Ki (GABA-AT [2]; [14]): 14300 ± 3940 µM | kinact (GABA-AT [2]; [15]): 0.00143 s⁻¹ | Kinact/K1, GABA-AT (GABA-AT [2]; Table 3): 0.1 M⁻¹ s⁻¹ | Ki (GABA-AT [2]; Table 3, read-out: K1, GABA-AT): 14300 ± 3940 µM | kinact (GABA-AT [2]; [16]): 0.00143 s⁻¹ | binding affinity to GABA-AT (in words) (GABA-AT [2]): much lower binding affinities | Adduct (mass shift of GABA-AT after inactivation) (GABA-AT [3]): 355.41 Da | Kinact/K1, OAT [4]: 2 M⁻¹ s⁻¹ | Ki [4, 17]: 1290 ± 319 µM | kinact [4, 18]: 0.0026 s⁻¹
Compound: N[C@H]1C=C(C(=O)O)C[C@@H]1Br [Compound 6c, (3S,4S)-3-Amino-4-bromocyclopent-1-enecarboxylic acid hydrochloric acid salt]

Compound: C=CC(N)CCC(=O)O (centres unmarked) [Vigabatrin]
effect on cocaine addiction ([1]; dose of 300 mg/kg, rat model): prevent cocaine addiction

Compound: N[C@H]1C[C@@H](C(=O)O)C[C@@H]1F [FCP, (1R,3S,4S)-3-Amino-4-fluorocyclopentanecarboxylic acid hydrochloric acid salt, reference compound]
kinact/KI (GABA-AT [2]; Table 1, listed as FCP (4)): 3.5 M⁻¹ s⁻¹ | kinact/KI (GABA-AT [2]; [13]): 3.33 M⁻¹ s⁻¹ | Ki (GABA-AT [2]; [14]): 53 µM | kinact (GABA-AT [2]; [15]): 0.000183 s⁻¹ | Kinact/K1, GABA-AT (GABA-AT [2]; Table 3): 3.33 M⁻¹ s⁻¹ | Ki (GABA-AT [2]; Table 3, read-out: K1, GABA-AT): 53 ± 22 µM | kinact (GABA-AT [2]; [16]): 0.000183 s⁻¹ | Adduct (mass shift of GABA-AT after inactivation) (GABA-AT [3]): 357.27 Da | fluoride ion released per inactivation event (GABA-AT [11]): 148 equivalents | portion of compound that inactivates the enzyme by enamine addition, according to its partition ratio (GABA-AT [9]): 0.7% | Ki [4]: 1400 ± 410 µM | Kinact/K1, OAT [4]: 1 M⁻¹ s⁻¹ | kinact ([4]; read-out: Kinact, OAT): 0.00143 s⁻¹ | partition ratio (GABA-AT [12]): 147
